Like-named read-outs stand apart in the source and are kept apart here.
Legend:
[1] = test system: rat intestinal maltase α-glucosidase; assay: Glycosidase inhibition, laboratory 1: rat intestinal maltase; assay type: biochemical; settings: methanol; for IC50: rat intestinal maltase α-glucosidase
Source text: (§1) The enzymes α-glucosidase (from yeast), β-glucosidases (from almond and bovine liver), α-galactosidase (from coffee beans), β-galactosidase (from bovine liver), α-mannosidase (from Jack bean), β-mannosidase (from snail), α-L-rhamnosidase (from Penicillium decumbens), α-L-fucosidase (from bovine kidney), trehalase (from porcine kidney), β-glucuronidases (from E. coli and bovine liver), amyloglucosidase (from A. niger), para-nitrophenyl glycosides, and various disaccharides were purchased from Sigma-Aldrich Co (St Louis, MO, USA).
(§2) Brush border membranes were prepared from the rat small intestine according to the method of Kessler et al. and were assayed at pH 6.8 for rat intestinal maltase using maltose. For rat intestinal maltase, porcine kidney trehalase, and A. niger amyloglucosidase activities, the reaction mixture contained 25 mM maltose and the appropriate amount of enzyme, and the incubations were performed for 10–30 min at 37 °C. The reaction was stopped by heating at 100 °C for 3 min. After centrifugation (600× g; 10 min), the resulting reaction mixture was added to the Glucose CII-test Wako (Wako Pure Chemical Ind., Osaka, Japan). The absorbance at 505 nm was measured to determine the amount of the released D-glucose. Other glycosidase activities were determined using an appropriate para-nitrophenyl glycoside as substrate at the optimum pH of each enzyme. The reaction mixture contained 2 mM of the substrate and the appropriate amount of enzyme. The reaction was stopped by addition of 400 mM Na2CO3. The released para-nitrophenol was measured spectrometrically at 400 nm. All reactions run in methanol.

[2] = target: T1, Jack bean α-mannosidase (Canavalia ensiformis, UniProt C0HJB3); assay: Glycosidase inhibition, laboratory 1: Jack bean α-mannosidase; assay type: biochemical; settings: methanol
T1 construct: purchased Sigma-Aldrich Co
T1 sequence (C0HJB3 1-981): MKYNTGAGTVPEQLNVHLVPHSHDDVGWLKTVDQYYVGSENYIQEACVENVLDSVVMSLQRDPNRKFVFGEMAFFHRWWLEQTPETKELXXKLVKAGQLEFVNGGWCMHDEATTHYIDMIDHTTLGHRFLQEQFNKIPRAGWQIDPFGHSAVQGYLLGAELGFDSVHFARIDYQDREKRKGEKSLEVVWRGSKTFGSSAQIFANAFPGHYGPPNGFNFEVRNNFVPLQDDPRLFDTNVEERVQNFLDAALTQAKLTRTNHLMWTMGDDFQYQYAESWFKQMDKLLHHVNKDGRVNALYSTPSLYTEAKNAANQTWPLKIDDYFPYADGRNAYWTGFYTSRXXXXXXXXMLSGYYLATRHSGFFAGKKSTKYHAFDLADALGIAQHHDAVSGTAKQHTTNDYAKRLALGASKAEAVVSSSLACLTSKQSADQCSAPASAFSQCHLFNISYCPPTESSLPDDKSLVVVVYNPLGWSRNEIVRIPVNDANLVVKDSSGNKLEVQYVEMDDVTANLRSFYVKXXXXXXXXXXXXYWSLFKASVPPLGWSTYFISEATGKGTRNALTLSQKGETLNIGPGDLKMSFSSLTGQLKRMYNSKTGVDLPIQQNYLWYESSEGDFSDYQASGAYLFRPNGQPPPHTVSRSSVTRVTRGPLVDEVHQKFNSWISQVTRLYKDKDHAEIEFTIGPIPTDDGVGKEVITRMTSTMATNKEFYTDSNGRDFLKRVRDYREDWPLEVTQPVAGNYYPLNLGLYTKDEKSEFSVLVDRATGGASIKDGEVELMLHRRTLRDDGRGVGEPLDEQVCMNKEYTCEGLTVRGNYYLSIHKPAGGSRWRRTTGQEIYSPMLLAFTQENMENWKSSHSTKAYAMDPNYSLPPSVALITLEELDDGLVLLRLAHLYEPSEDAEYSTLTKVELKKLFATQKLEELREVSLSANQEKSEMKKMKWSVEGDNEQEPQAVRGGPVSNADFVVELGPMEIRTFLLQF
Source text: as §1, §2

[3] = target: T2, E. coli β-glucuronidase (Escherichia coli, UniProt P05804); assay: Glycosidase inhibition, laboratory 1: E. coli β-glucuronidase; assay type: biochemical; settings: for inhibition at 10 µM: read-out: inhibition % at 10 μM; for inhibition at 100 µM: read-out: inhibition % at 100 μM
T2 construct: purchased Sigma-Aldrich Co
T2 sequence (P05804 whole entry): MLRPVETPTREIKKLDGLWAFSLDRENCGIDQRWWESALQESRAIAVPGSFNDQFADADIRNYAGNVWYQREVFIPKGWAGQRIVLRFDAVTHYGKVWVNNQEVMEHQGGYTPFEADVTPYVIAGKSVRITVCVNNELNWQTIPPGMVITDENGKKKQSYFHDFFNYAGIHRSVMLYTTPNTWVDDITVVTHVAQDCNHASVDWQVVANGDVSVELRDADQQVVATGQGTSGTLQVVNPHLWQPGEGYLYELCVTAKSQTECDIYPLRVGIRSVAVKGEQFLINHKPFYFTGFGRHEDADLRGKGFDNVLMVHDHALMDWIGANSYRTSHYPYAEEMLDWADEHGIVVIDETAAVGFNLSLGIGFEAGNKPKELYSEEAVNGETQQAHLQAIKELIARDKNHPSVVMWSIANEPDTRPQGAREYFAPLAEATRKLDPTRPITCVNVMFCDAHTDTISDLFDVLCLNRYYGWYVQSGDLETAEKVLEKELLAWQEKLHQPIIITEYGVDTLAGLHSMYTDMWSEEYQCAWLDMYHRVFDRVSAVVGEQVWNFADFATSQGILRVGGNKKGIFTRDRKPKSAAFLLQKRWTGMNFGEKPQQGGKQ
Source text: as §1, §2

[4] = test system: Bacillus α-glucosidase; assay: Glycosidase inhibition, laboratory 2: Bacillus α-glucosidase; assay type: biochemical; settings: water
Experimental: (§3) All enzymes and para-nitrophenyl substrates were purchased from Sigma. Enzymes were assayed at 27 °C in 0.1 M citric acid/0.2 M disodium hydrogen phosphate buffers at the optimum pH for the enzyme. The incubation mixture consisted of 10 μL enzyme solution, 10 μL of 1 mg/mL aqueous solution of extract and 50 μL of the appropriate 5 mM para-nitrophenyl substrate made up in buffer at the optimum pH for the enzyme. The reactions were stopped by addition of 70 μL 0.4 M glycine (pH 10.4) during the exponential phase of the reaction, which had been determined at the beginning using uninhibited assays in which water replaced inhibitor. Final absorbances were read at 405 nm using a Versamax microplate reader (Molecular Devices). Assays were carried out in triplicate, and the values given are means of the three replicates per assay. All reactions run in water.

[5] = test system: almond β-glucosidase; assay: Glycosidase inhibition, laboratory 2: almond β-glucosidase; assay type: biochemical; settings: water
Experimental: as §3

[6] = test system: HT29; assay: MTT cell growth inhibition: HT29; assay type: cell-based; settings: 72 h; for Percentage (%) Cell Growth Inhibition in response to 25 µM of Drug: HT29 colon carcinoma; for inhibition at 25 µM: Homo sapiens, HT-29, HT29 colon carcinoma, read-out: Percentage (%) Cell Growth Inhibition in response to 25 µM of Drug
Experimental: (§4) All test agents were prepared as stock solutions (20 mM) in dimethyl sulfoxide (DMSO) and stored at −20 °C. Cell lines used in the study included HT29 (colorectal carcinoma); U87, SJ-G2, (glioblastoma); MCF-7, (breast carcinoma); A2780 (ovarian carcinoma); H460 (lung carcinoma); A431 (skin carcinoma); Du145 (prostate carcinoma); BE2-C (neuroblastoma); MiaPaCa-2 (pancreatic carcinoma); and SMA560 (spontaneous murine astrocytoma), together with the one non-tumour-derived normal breast cell line (MCF10A). All cell lines were incubated in a humidified atmosphere 5% CO2 at 37 °C. The cancer cell lines were maintained in Dulbecco’s modified Eagle’s medium (DMEM; Sigma, Australia) supplemented with foetal bovine serum (10%), sodium pyruvate (10 mM), penicillin (100 IUmL^−1), streptomycin (100 µg mL^−1) and L-glutamine (2 mM).
(§5) Growth inhibition was determined by plating cells in duplicate in medium (100 µL) at a density of 2500–4000 cells per well in 96-well plates. On day 0 (24 h after plating), when the cells were in logarithmic growth, medium (100 µL) with or without the test agent was added to each well. After 72 h drug exposure, growth inhibitory effects were evaluated using the MTT (3-(4,5-dimethyltiazol-2-yl)-2,5-diphenyltetrazolium bromide) assay and absorbance read at 540 nm. The percentage growth inhibition was calculated at a fixed concentration of 25 µM, based on the difference between the optical density values on day 0 and those at the end of drug exposure. Each data point is the mean ± the standard error of the mean (SEM) calculated from three replicates which were performed on separate occasions and separate cell line passages.

[7] = test system: U87; assay: MTT cell growth inhibition: U87; assay type: cell-based; settings: U87 glioblastoma; for Percentage (%) Cell Growth Inhibition in response to 25 µM of Drug / inhibition at 25 µM: 72 h, MTT; for inhibition at 25 µM / GI50: Homo sapiens, U-87 MG; for inhibition at 25 µM: read-out: Percentage (%) Cell Growth Inhibition in response to 25 µM of Drug; for GI50: read-out: GI50 = Concentration (µM) that inhibits cell growth by 50%, dose response
Experimental: as §4, §5

[8] = E. coli β-glucuronidase, 100 μM, methanol

For “Borocaptate sodium [BSH, reference compound]”, the “inhibition % at 1000 μM” value ([1]; rat intestinal maltase, 1000 μM) was “^aNI ^b(0%)”, the “inhibition % at 1000 μM” value ([2]; 1000 μM) was “^aNI ^b (7.9%)” and the “inhibition % at 1000 μM” value ([3]; E. coli β-glucuronidase, 1000 μM, methanol) was “^aNI ^b (6%)”. For the same compound, the “% inhibition at ~400 μM” value [4] was 48.1%, the “% inhibition at ~400 μM” value [5] was 47.3% and the “Percentage (%) Cell Growth Inhibition in response to 25 µM of Drug” value (“Percentage (%) Cell Growth Inhibition” below) [6] was 3 ± 2%. The “Percentage (%) Cell Growth Inhibition” value [7] was under 0%.

`N[C@@H](Cc1ccc(B(O)O)cc1)C(=O)O` [BPA, 4-borono-L-phenylalanine, reference compound] was tested, and the “inhibition % at 100 μM” value ([1]; rat intestinal maltase) was “^cNI ^d(0%)”, the “% inhibition at ~400 μM” value ([4]; 400 µM) was 19.9% and the “% inhibition at ~400 μM” value ([5]; 400 µM) was 3.9%. The inhibition at 25 µM [6] was 14% and the inhibition at 25 µM [7] was under 0%.

For `CC1(C)OB(c2ccccc2NC(=O)c2cc(Cl)c(Cl)c(Cl)c2Cl)OC1(C)C` [ortho 5, 2,3,4,5-Tetrachloro-N-(2-(4,4,5,5-tetramethyl-1,3,2-dioxaborolan-2-yl)phenyl)benzamide], the “inhibition % at 10 μM” value ([1]; rat intestinal maltase) was “^cNI ^d(3%)”, the inhibition at 10 µM [2] was 3.4% and the inhibition at 10 µM ([3]; E. coli β-glucuronidase, 10 μM, methanol) was 3.8%. The “% inhibition at ~400 μM” value [4] was 14.4%, the “% inhibition at ~400 μM” value [5] was 21% and the inhibition at 25 µM [6] was 98 ± 2%. It also gave a GI50 [7] of 25 ± 2.6 µM and an inhibition at 25 µM [7] of 58 ± 5%.

`CC1(C)OB(c2ccc(CN3C(=O)c4c(Cl)c(Cl)c(Cl)c(Cl)c4C3=O)cc2)OC1(C)C` [para 3, 4,5,6,7-Tetrachloro-2-(4-(4,4,5,5-tetramethyl-1,3,2-dioxaborolan-2-yl)benzyl)isoindoline-1,3-dione] was tested, and the “inhibition % at 100 μM” value ([1]; rat intestinal maltase) was “^aNI ^b (12.2%)”, the inhibition at 100 µM ([2]; 100 μM) was 0% and the inhibition at 100 µM [3] was 2.2%. For the same compound, the “% inhibition at ~400 μM” value [4] was 17.9%, the “% inhibition at ~400 μM” value [5] was 15.4% and the inhibition at 25 µM [6] was 99 ± 2%. For the same compound, the GI50 [7] was 4.2 ± 1 µM and the inhibition at 25 µM [7] was over 100%.

In the case of `N[C@@H](Cc1ccc(B(O)O)cc1)C(=O)O` [^10B-BPA, reference compound], the “inhibition % at 100 μM” value ([1]; rat intestinal maltase) is reported as “^cNI ^d (0%)”, the “inhibition % at 100 μM” value ([2]; 100 μM) is reported as “^cNI ^d (0%)” and the “inhibition % at 100 μM” value [3, 8] is reported as “^cNI ^d (2.4%)”. For the same compound, the “% inhibition at ~400 μM” value ([4]; 400 µM) was 19.5%, the “% inhibition at ~400 μM” value ([5]; 400 µM) was 3% and the “Percentage (%) Cell Growth Inhibition” value [6] was 15 ± 4%. The “Percentage (%) Cell Growth Inhibition” value [7] was under 0%.

For `CC1(C)OB(c2cccc(CN3C(=O)c4c(Cl)c(Cl)c(Cl)c(Cl)c4C3=O)c2)OC1(C)C` [meta 3, 4,5,6,7-Tetrachloro-2-(3-(4,4,5,5-tetramethyl-1,3,2-dioxaborolan-2-yl)benzyl)isoindoline-1,3-dione], the “inhibition % at 10 μM” value ([1]; rat intestinal maltase) was “^cNI ^d (22.1%)”, the inhibition at 10 µM [2] was 2.7% and the inhibition at 10 µM [3] was 6.1%. The “% inhibition at ~400 μM” value [4] was 31.7%, the “% inhibition at ~400 μM” value [5] was 19.3% and the inhibition at 25 µM [6] was 53 ± 3%. It also gave a GI50 [7] of 19 ± 1.5 µM and an inhibition at 25 µM [7] of 70 ± 8%.

`CC1(C)OB(c2ccccc2CNC(=O)c2cc(Cl)c(Cl)c(Cl)c2Cl)OC1(C)C` [ortho 8, 2,3,4,5-tetrachloro-N-(2-(4,4,5,5-tetramethyl-1,3,2-dioxaborolan-2-yl)benzyl)benzamide] gave an IC50 [1] of 305 µM, an inhibition at 100 µM ([2]; 100 μM) of 12.5% and an inhibition at 100 µM [3] of 41.7%. The “% inhibition at ~400 μM” value [4] was 23.7%, the “% inhibition at ~400 μM” value [5] was 83.4% and the inhibition at 25 µM [6] was 5 ± 10%. For the same compound, the inhibition at 25 µM [7] was under 0%.

In the case of `CC1(C)OB(c2cccc(NC(=O)c3cc(Cl)c(Cl)c(Cl)c3Cl)c2)OC1(C)C` [meta 5, 2,3,4,5-tetrachloro-N-(3-(4,4,5,5-tetramethyl-1,3,2-dioxaborolan-2-yl)phenyl)benzamide], the IC50 [1] is reported as 274 µM, the inhibition at 100 µM ([2]; 100 μM) is reported as 7.6% and the IC50 ([3]; E. coli β-glucuronidase, methanol) is reported as 932 µM. The “% inhibition at ~400 μM” value [4] was 54.1%, the “% inhibition at ~400 μM” value [5] was 18.7% and the inhibition at 25 µM [6] was 10 ± 7%. For the same compound, the inhibition at 25 µM [7] was under 0%.

For `CC1(C)OB(c2ccc(NC(=O)c3cc(Cl)c(Cl)c(Cl)c3Cl)cc2)OC1(C)C` [para 5, 2,3,4,5-tetrachloro-N-(4-(4,4,5,5-tetramethyl-1,3,2-dioxaborolan-2-yl)phenyl)benzamide], the IC50 [1] was 188 µM, the inhibition at 100 µM ([2]; 100 μM) was 19.3% and the inhibition at 100 µM [3, 8] was 45.5%. For the same compound, the “% inhibition at ~400 μM” value [4] was 20%, the “% inhibition at ~400 μM” value [5] was 11.3% and the inhibition at 25 µM [6] was 69 ± 7%. For the same compound, the inhibition at 25 µM [7] was 21 ± 16%.

From PMC9182199, “Borylated 2,3,4,5-Tetrachlorophthalimide and Their 2,3,4,5-Tetrachlorobenzamide Analogues: Synthesis, Their Glycosidase Inhibition and Anticancer Properties in View to Boron Neutron Capture Therapy” (Molecules, 2022)
